Experimental data published in article PMC10301845, “Characterization of a Novel M4 PAM PET Radioligand [11C]PF06885190 in Nonhuman Primates (NHP)” (Molecules, 2023).
Read-outs that look alike come from different tables or passages of the source.

How the values were obtained:
[1] = Protein binding in plasma (ultrafiltration); type: in vitro ADME, monkey; conditions: male, cynomolgus, monkey, plasma, read-out: free fraction in plasma
Description: (§1) The free fraction (fp) in blood plasma was measured using an ultrafiltration method with the blood sample collected before the injection of [^11C]PF06885190. Plasma (0.4 mL) was mixed with [^11C]PF06885190 formulation (0.04 mL, ~1 MBq) and incubated at room temperature (RT) for 10 min. To estimate the non-specific binding percent, the same process was performed on phosphate buffered saline (PBS) (0.4 mL) as a control solution. After the incubation, 0.2 mL of the plasma and PBS incubated mixtures were pipetted into ultrafiltration tubes (Centrifree YM-30, molecular weight cutoff, 30,000 Da; Millipore: Billerica, MA, USA) and centrifuged at 3800 rpm for 15 min. Equal aliquots (0.02 mL) of the ultrafiltrate (Cfree) and the plasma (Ctotal) were counted for their radioactivity with a NaI well-counter. Each determination was performed in triplicate. The free fraction was then calculated as fp = Cfree/Ctotal, and the results were corrected for the membrane binding measured with the control samples.

[2] = tested on: monkey plasma proteins; assay: Protein binding in plasma (ultrafiltration); type: in vitro ADME
Description: as §1

[3] = Stability of the radioligand in the formulation (analytical HPLC); type: physicochemical; conditions: sterile PBS formulation; up to 60 min / 1 h after end of synthesis
Description: The radiochemical purity and stability of [^11C]PF06885190 was determined by an analytical HPLC system coupled with an analytical XBridge column (C18 5 µm, 4.6 × 150 mm particle size), a Merck Hitachi L-7100 Pump, a L-7400 UV detector and a GM-tube for radioactivity detection (VWR International). A mixture of acetonitrile (30%) and HCO2NH4 (0.1 M aq. solution) (70%) with a flow rate of 2 mL/min was used as the HPLC isocratic mobile phase. The HPLC elution profile was monitored with an UV absorbance detector (ƛ = 254 nm) coupled to a radioactive detector (BETA-flow, Beckman, Fullerton, CA). [^11C]PF-06885190 was eluted with a retention time of (tR) 4.0–4.5 min (Figure S3, Supplementary Material) and the run time of the HPLC program was 8 min. The identity of the radiolabeled compounds was confirmed by HPLC with the co-injection of the corresponding authentic reference standard. The MA was calculated by analytical HPLC following the method described previously reported.

[4] = after pretreatment with donepezil

fraction unbound at 10 min [1, 4]: 0.121
fraction unbound at 10 min ([1]; baseline): 0.248
Binding to monkey plasma proteins [2, 4]: 87.9 ± 0.3%
Binding to monkey plasma proteins ([2]; baseline): 75.2 ± 4.2%
stability in formulation, radiochemical purity [3]: exceeding 99%
Compound: Cc1nc(N[11CH3])c2c(c1C)CN(C(=O)C[C@H]1C[C@@H]1c1ccc(F)nc1)C2 [[^11C]PF06885190]
